Measured values reported in US20260108546A1 (ELI LILLY AND COMPANY, priority 2024, published 2026).

Target: T1, hGIP-R (Homo sapiens, UniProt P48546)
T1 construct: expressed in transfected cells; host or cells: HEK-293 clonal cell lines
T1 sequence (P48546 22-466): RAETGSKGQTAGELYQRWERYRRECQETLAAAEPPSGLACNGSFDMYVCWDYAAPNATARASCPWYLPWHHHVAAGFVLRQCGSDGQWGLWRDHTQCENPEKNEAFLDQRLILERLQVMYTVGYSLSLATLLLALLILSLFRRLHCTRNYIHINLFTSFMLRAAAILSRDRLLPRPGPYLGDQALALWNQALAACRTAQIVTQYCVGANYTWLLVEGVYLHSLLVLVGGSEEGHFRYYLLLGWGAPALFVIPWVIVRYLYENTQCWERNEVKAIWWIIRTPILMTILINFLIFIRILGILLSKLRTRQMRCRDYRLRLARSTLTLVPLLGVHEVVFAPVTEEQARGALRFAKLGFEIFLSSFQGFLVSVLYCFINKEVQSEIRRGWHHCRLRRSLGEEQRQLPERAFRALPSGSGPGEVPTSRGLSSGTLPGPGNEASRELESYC
Assay: Functional hGIP-R Assay (cAMP formation, HTRF)
Type: cell-based
Settings: for Emax: cAMP efficacy, percent of maximal response to GIP(1-42)OH, 37° C., 0.1% bovine casein, arithmetic mean ± SEM; for EC50: cAMP potency, HEK-293 cells expressing hGIP-R, incubated at 37° C. in the presence of 0.1% bovine casein, geometric mean, read-out: Human GIP-R EC50, nM (SEM, n)
Procedure, shortened: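 HEK-293 cells expressing hGIP-R were given a 20-point compound series in DMEM with 0.1% casein, 250 μM IBMX, 1% DMSO, 30 min at 37 °C. cAMP was read by HTRF against a standard curve, expressed as % of human GIP (1-42) OH maximum; EC50 and Emax came from four-parameter fits.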

Emax [%] | EC50 [nM] | SMILES
78.6 ± 6.28 | 138 | Cn1cc2cc(-c3ccc([C@H]4C[C@@]45CCN([C@H](Cc4cnn(C(F)F)c4)C(=O)NC(C)(C)Cn4nc(C(F)(F)F)cc4-c4cn(C)c(=O)c6ccccc46)C5=O)cc3)cnc2n1 [Example 129, (R)-3-(1-(Difluoromethyl)-1H-pyrazol-4-yl)-N-(2-methyl-1-(5-(2-methyl-1-oxo-1,2-dihydroisoquinolin-4-yl)-3-(trifluoromethyl)-1H-pyrazol-1-yl)propan-2-yl)-2-((1R,3R)-1-(4-(2-methyl-2H-pyrazolo[3,4-b]pyridin-5-yl)phenyl)-4-oxo-5-azaspiro[2.4]heptan-5-yl)propanamide]
74.9 ± 11.6 | 104 | Cn1cc2cc(-c3ccc([C@H]4C[C@@]45CCN([C@H](Cc4cnn(C(F)F)c4)C(=O)NC(C)(C)Cn4nc(C(F)(F)F)cc4-c4cc(C(F)(F)F)c(=O)n(C)c4)C5=O)cc3)cnc2n1 [Example 130, (R)-3-(1-(Difluoromethyl)-1H-pyrazol-4-yl)-N-(2-methyl-1-(5-(1-methyl-6-oxo-5-(trifluoromethyl)-1,6-dihydropyridin-3-yl)-3-(trifluoromethyl)-1H-pyrazol-1-yl)propan-2-yl)-2-((1R,3R)-1-(4-(2-methyl-2H-pyrazolo[3,4-b]pyridin-5-yl)phenyl)-4-oxo-5-azaspiro[2.4]heptan-5-yl)propanamide]
57.9 ± 4.24 | 17.7 | Cn1cc2cc(-c3ccc([C@H]4C[C@@]45CCN([C@H](Cc4cnn(C(F)F)c4)C(=O)NC(C)(C)Cn4nc(C(F)(F)F)cc4-c4cc(F)c6nccn6c4)C5=O)cc3)cnc2n1 [Example 131, (R)-3-(1-(Difluoromethyl)-1H-pyrazol-4-yl)-N-(1-(5-(8-fluoroimidazo[1,2-a]pyridin-6-yl)-3-(trifluoromethyl)-1H-pyrazol-1-yl)-2-methylpropan-2-yl)-2-((1R,3R)-1-(4-(2-methyl-2H-pyrazolo[3,4-b]pyridin-5-yl)phenyl)-4-oxo-5-azaspiro[2.4]heptan-5-yl)propanamide]
93.3 ± 0.0968 | 20.3 | Cn1cc2cc(-c3ccc([C@H]4C[C@@]45CCN([C@H](Cc4cnn(C(F)F)c4)C(=O)NC(C)(C)Cn4nc(C(F)(F)F)cc4-c4ccc(C(N)=O)[nH]c4=O)C5=O)cc3)cnc2n1 [Example 132, 5-(1-(2-((R)-3-(1-(Difluoromethyl)-1H-pyrazol-4-yl)-2-((1R,3R)-1-(4-(2-methyl-2H-pyrazolo[3,4-b]pyridin-5-yl)phenyl)-4-oxo-5-azaspiro[2.4]heptan-5-yl)propanamido)-2-methylpropyl)-3-(trifluoromethyl)-1H-pyrazol-5-yl)-6-oxo-1,6-dihydropyridine-2-carboxamide]
78.4 ± 3.18 | 13.7 | Cn1cc2cc(-c3ccc([C@H]4C[C@@]45CCN([C@H](Cc4cnn(C(F)F)c4)C(=O)NC(C)(C)Cn4nc(C(F)(F)F)cc4-c4cn(C)c(=O)c6ccnn46)C5=O)cc3)cnc2n1 [Example 133, (R)-3-(1-(Difluoromethyl)-1H-pyrazol-4-yl)-N-(2-methyl-1-(5-(5-methyl-4-oxo-4,5-dihydropyrazolo[1,5-a]pyrazin-7-yl)-3-(trifluoromethyl)-1H-pyrazol-1-yl)propan-2-yl)-2-((1R,3R)-1-(4-(2-methyl-2H-pyrazolo[3,4-b]pyridin-5-yl)phenyl)-4-oxo-5-azaspiro[2.4]heptan-5-yl)propanamide]
57.4 ± 0.103 | 7.63 | Cn1cc2cc(-c3ccc([C@H]4C[C@@]45CCN([C@H](Cc4cnn(C(F)F)c4)C(=O)NC(C)(C)Cn4nc(C(F)(F)F)cc4-c4ccn(C(F)F)c(=O)c4)C5=O)c(F)c3)cnc2n1 [Example 134, (R)-3-(1-(Difluoromethyl)-1H-pyrazol-4-yl)-N-(1-(5-(1-(difluoromethyl)-2-oxo-1,2-dihydropyridin-4-yl)-3-(trifluoromethyl)-1H-pyrazol-1-yl)-2-methylpropan-2-yl)-2-((1S,3R)-1-(2-fluoro-4-(2-methyl-2H-pyrazolo[3,4-b]pyridin-5-yl)phenyl)-4-oxo-5-azaspiro[2.4]heptan-5-yl)propanamide]
48.5 ± 2.32 | 5.61 | CN(C)Cc1ccc(-c2cc(C(F)(F)F)nn2CC(C)(C)NC(=O)[C@@H](Cc2cnn(C(F)F)c2)N2CC[C@@]3(C[C@@H]3c3ccc(-c4cnc5nn(C)cc5c4)cc3F)C2=O)cn1 [Example 135, (R)-3-(1-(Difluoromethyl)-1H-pyrazol-4-yl)-N-(1-(5-(6-((dimethylamino)methyl)pyridin-3-yl)-3-(trifluoromethyl)-1H-pyrazol-1-yl)-2-methylpropan-2-yl)-2-((1S,3R)-1-(2-fluoro-4-(2-methyl-2H-pyrazolo[3,4-b]pyridin-5-yl)phenyl)-4-oxo-5-azaspiro[2.4]heptan-5-yl)propanamide]
74.6 ± 6.02 | 10.8 | [2H]C([2H])([2H])N(C(=O)[C@H]1C[C@@H]1c1ccc(-c2cnc3nn(C)cc3c2)nc1C(F)(F)F)[C@H](Cc1cnn(C(F)F)c1)C(=O)NC(C)(C)Cn1nc(C(F)(F)F)cc1-c1cc(F)c(=O)n(C)c1 [Example 136, (1S,2S)-N—((R)-3-(1-(Difluoromethyl)-1H-pyrazol-4-yl)-1-((1-(5-(5-fluoro-1-methyl-6-oxo-1,6-dihydropyridin-3-yl)-3-(trifluoromethyl)-1H-pyrazol-1-yl)-2-methylpropan-2-yl)amino)-1-oxopropan-2-yl)-N-(methyl-d3)-2-(6-(2-methyl-2H-pyrazolo[3,4-b]pyridin-5-yl)-2-(trifluoromethyl)pyridin-3-yl)cyclopropane-1-carboxamide]
61.7 ± 1.34 | 12.3 | [2H]C([2H])([2H])N(C(=O)[C@H]1C[C@@H]1c1ccc(-c2cnc3nn(C)cc3c2)nc1C(F)F)[C@H](Cc1cnn(C(F)F)c1)C(=O)NC(C)(C)Cn1nc(C(F)(F)F)cc1-c1cc(F)c(=O)n(C)c1 [Example 137, (1S,2S)-N-((R)-3-(1-(Difluoromethyl)-1H-pyrazol-4-yl)-1-((1-(5-(5-fluoro-1-methyl-6-oxo-1,6-dihydropyridin-3-yl)-3-(trifluoromethyl)-1H-pyrazol-1-yl)-2-methylpropan-2-yl)amino)-1-oxopropan-2-yl)-2-(2-(difluoromethyl)-6-(2-methyl-2H-pyrazolo[3,4-b]pyridin-5-yl)pyridin-3-yl)-N-(methyl-d3)cyclopropane-1-carboxamide]
52.3 | 99.2 | [2H]C([2H])([2H])N(C(=O)[C@H]1C[C@@H]1c1ccc(-c2cnc3nn(C)cc3c2)nc1C(F)F)[C@@H](Cc1cnn(C(F)F)c1)C(=O)NC(C)(C)Cn1nc(C(F)(F)F)cc1-c1cc(F)c(=O)n(C)c1 [Example 138, (1S,2S)-N-((S)-3-(1-(Difluoromethyl)-1H-pyrazol-4-yl)-1-((1-(5-(5-fluoro-1-methyl-6-oxo-1,6-dihydropyridin-3-yl)-3-(trifluoromethyl)-1H-pyrazol-1-yl)-2-methylpropan-2-yl)amino)-1-oxopropan-2-yl)-2-(2-(difluoromethyl)-6-(2-methyl-2H-pyrazolo[3,4-b]pyridin-5-yl)pyridin-3-yl)-N-(methyl-d3)cyclopropane-1-carboxamide]
99.7 ± 3.49 | 24.8 | [2H]C([2H])([2H])N(C(=O)[C@H]1C[C@@H]1c1cnc(-c2cnc3nn(C)cc3c2)nc1C(F)(F)F)[C@H](Cc1cnn(C(F)F)c1)C(=O)NC(C)(C)Cn1nc(C(F)(F)F)cc1-c1cc(F)c(=O)n(C)c1 [Example 139, (1S,2S)-N-((R)-3-(1-(Difluoromethyl)-1H-pyrazol-4-yl)-1-((1-(5-(5-fluoro-1-methyl-6-oxo-1,6-dihydropyridin-3-yl)-3-(trifluoromethyl)-1H-pyrazol-1-yl)-2-methylpropan-2-yl)amino)-1-oxopropan-2-yl)-N-(methyl-d3)-2-(2-(2-methyl-2H-pyrazolo[3,4-b]pyridin-5-yl)-4-(trifluoromethyl)pyrimidin-5-yl)cyclopropane-1-carboxamide]
60.9 ± 5.88 | 26.2 | [2H]C([2H])([2H])n1cc(-c2cc(C(F)(F)F)nn2CC(C)(C)NC(=O)[C@@H](Cc2cnn(C(F)F)c2)N2CC[C@@]3(C[C@@H]3c3ccc(-c4cnc5nn(C)cc5c4)cc3)C2=O)cc(F)c1=O [Example 141, (R)-3-(1-(Difluoromethyl)-1H-pyrazol-4-yl)-N-(1-(5-(5-fluoro-1-(methyl-d3)-6-oxo-1,6-dihydropyridin-3-yl)-3-(trifluoromethyl)-1H-pyrazol-1-yl)-2-methylpropan-2-yl)-2-((1R,3R)-1-(4-(2-methyl-2H-pyrazolo[3,4-b]pyridin-5-yl)phenyl)-4-oxo-5-azaspiro[2.4]heptan-5-yl)propanamide]
49.9 ± 1.38 | 102 | Cn1cc2cc(-c3ccc([C@H]4C[C@@]45CCN([C@H](Cc4cnn(C(F)F)c4)C(=O)NC(C)(C)Cn4nc(C(F)(F)F)cc4-c4cnc(N6CCC(=O)CC6)nc4)C5=O)cc3)cnc2n1 [Example 142, (R)-3-(1-(Difluoro-methyl)-1H-pyrazol-4-yl)-N-(2-methyl-1-(5-(2-(4-oxopiperidin-1-yl)pyrimidin-5-yl)-3-(trifluoromethyl)-1H-pyrazol-1-yl)propan-2-yl)-2-((1R,3R)-1-(4-(2-methyl-2H-pyrazolo[3,4-b]pyridin-5-yl)phenyl)-4-oxo-5-azaspiro[2.4]heptan-5-yl)propanamide]
